Reference: BindingDB's records for patent US20240158369 (Wigen Biomedicine Technology (Shanghai), 2024)

Target: Wee1-like protein kinase (Homo sapiens, UniProt P30291)
Assay: In-Vitro Assay
Description: The inhibitory effect of the compounds on the enzyme activity of recombinant protein Wee-1 was determined by HTRF. The procedures are as follows: After DMSO or serially diluted compounds (up to 200 nM, 1:5 diluted) and recombinant proteins were co-incubated in a kinase buffer at 37° C. for 30 min before Fluorescein-PolyGAT and ATP were added, and the reaction was initiated by addition of a substrate. After incubation at room temperature for 90 min, an antibody and a detection solution were added, and after further incubation at room temperature for 60 min, fluorescence values were detected (excitation wavelength: 340 nm, emission wavelengths: 495 and 520 nm). The 520 nm/495 nm fluorescence intensity ratio value was calculated, and compared with that of the DMSO group, and then the inhibition percentages and IC50 values of the compounds were calculated.

Chain of Wee1-like protein kinase (P30291 whole entry): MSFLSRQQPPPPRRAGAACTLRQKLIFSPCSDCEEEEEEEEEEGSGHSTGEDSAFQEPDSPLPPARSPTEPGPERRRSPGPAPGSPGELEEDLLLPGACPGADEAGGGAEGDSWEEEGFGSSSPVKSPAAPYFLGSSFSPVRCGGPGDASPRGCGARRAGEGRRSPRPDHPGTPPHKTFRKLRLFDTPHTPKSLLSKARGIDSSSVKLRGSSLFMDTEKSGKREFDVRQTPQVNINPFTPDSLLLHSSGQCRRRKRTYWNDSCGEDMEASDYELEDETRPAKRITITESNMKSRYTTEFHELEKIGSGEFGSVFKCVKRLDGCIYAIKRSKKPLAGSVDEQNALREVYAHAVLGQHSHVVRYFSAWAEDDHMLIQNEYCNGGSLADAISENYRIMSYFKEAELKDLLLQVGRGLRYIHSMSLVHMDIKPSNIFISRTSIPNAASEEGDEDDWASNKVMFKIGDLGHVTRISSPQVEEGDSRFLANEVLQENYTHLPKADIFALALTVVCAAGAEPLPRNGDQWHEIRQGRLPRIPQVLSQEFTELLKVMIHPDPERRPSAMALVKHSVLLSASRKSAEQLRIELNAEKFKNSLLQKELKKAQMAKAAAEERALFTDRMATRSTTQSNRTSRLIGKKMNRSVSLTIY

**Q.** With `CC(C)Cc1cc(Nc2ncc(C#N)c(Nc3cccc(N=S(C)(C)=O)n3)n2)cc2c1CCN(C)C2` [US20240158369, Compound 87] as the molecule, how does the IC50 read?
**A.** < 0.01 µM
